# Experimental data: US20040229772A1, “Peptides responsive to antibodies against consensus peptide of the CS4-CFA/I family proteins” (priority 1996, published 2004)
# Legend:
# Format in all cases: binding
# Antibody to CS1 = experiment: ELISA of 8-mer peptides (pins) with rabbit serum; details: a listed pin number means recognized
# Experimental: (§1) Blocks of pins for cleavable syntheses were obtained from Chiron Mimotopes U.S. Peptide synthesis was carried out according to the manufacturer's instructions using Opfp-derivatized amino acids. Peptides of length 8 with 7 overlap were manufactured in order to locate all linear epitopes in the sequence with a highest redundancy. […] Peptides were cleaved from the pins using 0.1 M phosphate buffer, pH 8.0, containing 40% acetonitrile. Two peptides were made and sacrificed for amino acid analysis as proof of peptide purity. A dinitrophenol (DNP) pin was included so that the efficiency of the cleavage could be monitored spectrophotometrically.
# (§2) For blocking, a composition containing 5% nonfat dry milk in PBS+0.2% sodium azide was used. Stock streptavidin (Calbiochem Corp., La Jolla, Calif.) at 1 mg/ml in water was kept frozen in aliquots for up to several months. On the day of use, the stock streptavidin was diluted in phosphate buffered saline (PBS) to provide a concentration of 5 μg/ml streptavidin. Goat F(ab′)2 anti-mouse, anti-rabbit and anti-human sera were labeled with alkaline phosphatase (Biosource, International, Camarillo, Calif.).
# (§3) Streptavidin was plated at 5 μg/ml, 50 μl per well, and incubated over night at 4° C. Plates were then washed by hand (Nunc Immunowash 12 hand plate washer. Fisher Scientific, Pittsburgh, Pa.) three times with PBS/0.1% TWEEN 20™. Peptides were then diluted to 10 μg/ml in PBS and plated at 50-μl/well. After incubation for one hour at room temperature followed by washing, the peptides were incubated with sera diluted in blocker at appropriate concentrations (5% nonfat dry milk) for 2 hours at room temperature. After washing the wells, 50 μl of phosphatase-labeled anti-serum IgG diluted 1:1000 in blocker was added to each well and was allowed to incubate at room temperature for 1 hour. The plates were washed. The 100 μl of PNDP (p-nitrophenylphosphate) substrate, prepared according to the manufacturer's instructions, was added to each well. Results were read at 5, 15 and 60 minutes using a microtiter plate reader (UVmax™, Moelcular Devices, Sunnyvale, Calif.).
# (§4) Partially to fully purified colonization factor (40% to 100% pure) was run on SDS-PAGE gel (5-15 μg/lane of 10 comb gel (precast 10 comb, 1 mm thickness, Tris-tricene gel from Novex, San Diego, Calif.), for primary immunization run 9 lanes for each rabbit (45-135 μg CF protein with ½ the amount used in the primary immunization used as a booster). The gel was stained with 0.5% COOMASSIE BLUE™ (BioRad, Richmond, Calif.) in water for 1 hour, then destained with multiple changes of water for 60-90 minutes. The colonization factor bands were excised with a scalpel and the excess gel trimmed. The bands were stored at −20° C. until use.
# (§5) After removal from freezer, the gel slices were transferred to a glass tissue homogenizer using a teflon pestle with grooves at the tip. The slices were ground with 0.3 ml phosphate buffered saline (PBS). The drill was run to homogenize the gel for 30 to 45 seconds. (In the instant case, a pestle with a shaft of steel was used which allowed placement of the pestle into the chuck of the hand-held drill.)
# (§6) The homogenate was transferred to 16 mm×150 mm test tubes with disposable plastic transfer pipet. The pestle and homogenizer vessel was rinsed repeatedly with PBS and the contents transferred to the 16×150 test tube until a volume of 1.2 ml was obtained.
# (§7) The sample obtained above was placed in a vortex mixer and vortexed on high. Freund's adjuvant 1.2 ml was added. (Complete Freund's was used for the primary immunization, while incomplete Freund's was used for the boost.) The composition was vortexed until a thick emulsion of almost a butter consistency was obtained (12-20 minutes).
# (§8) A preimmune serum was obtained on all animals, which were then immunized with the 1 ml of the emulsion subcutaneously at 4-6 spots on the shoulders and rump. The animals were boosted three weeks later, then bleed 10 days after the booster shots. […]
# [1] = system: antibodies raised to the consensus peptide; experiment: ELISA of 8-mer peptides with rabbit antibodies; details: for reactivity of 8-mer peptides with antibodies from the rabbits: rabbit antibodies raised to consensus peptide SEQ ID NO:1, biotin-SGSG-peptide on streptavidin; for interaction of peptides with the antibodies raised to the consensus peptide: rabbit antibodies raised to consensus peptide SEQ ID NO:1
# Experimental: as §1, §2, §3
# Antibodies from the rabbits were then tested against the specific 8-mer peptides obtained from SEQ ID NO:1 in the manner disclosed above to determine the binding sites of the antibodies in the sera with the consensus peptide.
# Antibody to CS2 = experiment: ELISA of 8-mer peptides (pins) with rabbit serum; details: a listed pin number means recognized
# Experimental: as §1, §2, §3, §4, §5, §6, §7, §8
# Antibody to CS4 = experiment: ELISA of 8-mer peptides (pins) with rabbit serum; details: a listed pin number means recognized
# Experimental: as §1, §2, §3, §4, §5, §6, §7, §8
# Antibody to 0166 upper = experiment: ELISA of 8-mer peptides (pins) with rabbit serum; details: rabbit 1081, a listed pin number means recognized
# Experimental: as §1, §2, §3, §4, §5, §6, §7, §8
Sequence,"pins (8-aa peptide) recognized by serum (Antibody to CS1; Antibody to CS1, rabbit 1089)","pins (8-aa peptide) recognized by serum (Antibody to CS1; Antibody to CS1, rabbit 1090)",reactivity of 8-mer peptides with antibodies from the rabbits [1],further results
ADGSALPS (listed as Escherichia coli) [compound 20],20,20,–,–
ALPSAVAL (listed as Escherichia coli) [compound 24],–,24,most reactive,"pins (8-aa peptide) recognized by serum (Antibody to CS2; Antibody to CS2, rabbit 1077): 24; pins (8-aa peptide) recognized by serum (Antibody to CS4; Antibody to CS4, rabbit 940): 24"
AVALTYSP (listed as Escherichia coli) [compound 28],28,28,most reactive,interaction of peptides with the antibodies raised to the consensus peptide [1]: more reliably interactive
DGSALPSA (listed as Escherichia coli) [compound 21],21,21,–,–
DLLQADGS (listed as Escherichia coli) [compound 16],–,–,–,pins (8-aa peptide) recognized by serum (Antibody to 0166 upper): 16
GSALPSAV (listed as Escherichia coli) [compound 22],–,22,–,"pins (8-aa peptide) recognized by serum (Antibody to CS4; Antibody to CS4, rabbit 940): 22"
IDLLQADG (listed as Escherichia coli) [compound 15],–,–,–,pins (8-aa peptide) recognized by serum (Antibody to 0166 upper): 15
ITVTASVD (listed as Escherichia coli) [compound 5],–,–,most reactive,–
LLQADGSA (listed as Escherichia coli) [compound 17],–,–,–,pins (8-aa peptide) recognized by serum (Antibody to 0166 upper): 17
LPSAVALT (listed as Escherichia coli) [compound 25],–,–,most reactive,"pins (8-aa peptide) recognized by serum (Antibody to CS4; Antibody to CS4, rabbit 940): 25"
LQADGSAL (listed as Escherichia coli) [compound 18],18,18,–,–
PSAVALTY (listed as Escherichia coli) [compound 26],–,26,most reactive,"interaction of peptides with the antibodies raised to the consensus peptide [1]: more reliably interactive; pins (8-aa peptide) recognized by serum (Antibody to CS4; Antibody to CS4, rabbit 938): 26"
QADGSALP (listed as Escherichia coli) [compound 19],19,19,–,–
SALPSAVA (listed as Escherichia coli) [compound 23],–,23,most reactive,–
SAVALTYS (listed as Escherichia coli) [compound 27],–,27,most reactive,interaction of peptides with the antibodies raised to the consensus peptide [1]: more reliably interactive
SVDPTIDL (listed as Escherichia coli) [compound 10],10,10,most reactive,"interaction of peptides with the antibodies raised to the consensus peptide [1]: more reliably interactive; pins (8-aa peptide) recognized by serum (Antibody to CS2; Antibody to CS2, rabbit 1076): 10; pins (8-aa peptide) recognized by serum (Antibody to CS2; Antibody to CS2, rabbit 1077): 10; pins (8-aa peptide) recognized by serum (Antibody to 0166 upper): 10; pins (8-aa peptide) recognized by serum (Antibody to CS4; Antibody to CS4, rabbit 938): 10; pins (8-aa peptide) recognized by serum (Antibody to CS4; Antibody to CS4, rabbit 940): 10"
VALTYSPA (listed as Escherichia coli) [compound 29],29,29,most reactive,–
